Numbered stars: 1 amine (or outer) side, 2 acyl side, 3 side chain; on linkers, the order of the positions; unused ones are H or OH. Square brackets hold non-standard residues; d marks the D form. Peptide text beside a SMILES is read from it. * marks the point of attachment. EDDnp = O=[N+]([O-])c1ccc(NCCN*)c([N+](=O)[O-])c1; X1 = NCC1CCC(C[C@H](N[*:1])C(=O)[*:2])CC1; 2Abz = Nc1ccccc1C(=O)O
Key:
Kallikrein-1 [1] = target: T1, Kallikrein-1 (Homo sapiens, UniProt P06870); assay: Inhibition of human KLK1 using Pro-Phe-Arg-MCA as substrate for 2 mins by spectrophotometric analysis
[2] = target: T2, Prostate-specific antigen (Homo sapiens, UniProt P07288); assay: Inhibition of KLK3
T2 sequence (P07288 whole entry): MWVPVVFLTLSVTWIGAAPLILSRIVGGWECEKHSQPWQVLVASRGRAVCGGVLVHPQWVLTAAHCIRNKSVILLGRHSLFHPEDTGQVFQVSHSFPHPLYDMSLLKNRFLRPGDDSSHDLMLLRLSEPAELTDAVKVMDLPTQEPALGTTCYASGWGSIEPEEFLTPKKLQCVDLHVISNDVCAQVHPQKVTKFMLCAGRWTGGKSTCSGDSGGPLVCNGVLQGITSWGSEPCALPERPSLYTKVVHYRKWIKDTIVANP

Kallikrein-1 [3] = target: T1, Kallikrein-1; assay: Inhibition of human KLK1

T1 sequence (P06870 whole entry): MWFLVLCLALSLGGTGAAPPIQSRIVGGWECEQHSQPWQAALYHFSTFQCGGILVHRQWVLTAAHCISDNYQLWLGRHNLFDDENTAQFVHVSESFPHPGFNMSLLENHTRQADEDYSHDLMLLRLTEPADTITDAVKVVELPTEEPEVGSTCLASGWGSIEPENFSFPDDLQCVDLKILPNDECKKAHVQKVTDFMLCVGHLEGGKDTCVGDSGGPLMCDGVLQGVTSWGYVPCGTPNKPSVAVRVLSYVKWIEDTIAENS

SMILES | Ki [2] [µM] | Ki (Kallikrein-1 [3]) [µM] | further results
CC(=O)N[C@H](CCCCN)C(=O)N[C@@H](Cc1ccccc1)C(=O)N[C@@H](Cc1ccccc1)C(=O)N1CCC[C@H]1C(=O)N[C@@H](CC(C)C)C(=O)N[C@@H](CCC(=O)O)C(N)=O |  |  | Ki (Kallikrein-1 [1]): 0.008 µM
Cc1c(-c2nc3ccccc3c(=O)o2)cccc1[N+](=O)[O-] | 0.3 |  | 
COc1ccc(C(=O)n2nc(-c3cccnc3)nc2C)cc1OC | 0.5 |  | 
N=C(N)NCCC[C@H](NC(=O)[C@H](CO)NC(=O)[C@H](CC1CCC(CN)CC1)NC(=O)[C@H](Cc1ccccc1)NC(=O)c1ccccc1N)C(=O)N[C@@H](CCC(N)=O)C(=O)NCCNc1ccc([N+](=O)[O-])cc1[N+](=O)[O-] (stereo not given in full) (H-[2Abz]F[X1]SRQ-EDDnp) |  | 0.05 | 
NC(=O)[C@H](CCCN=C(N)N)NC(=O)[C@H](CO)NC(=O)[C@H](CC1CCC(N)CC1)NC(=O)Cc1ccccc1 (mixture of isomers) |  | 0.11 | 

Source: ChEMBL document CHEMBL2169752, “Kallikrein protease activated receptor (PAR) axis: an attractive target for drug development” (J Med Chem, 2012)
